# pIC50: −log10 of the molar value. Bridge positions count the residues as written; N and C are the ends. Square brackets hold non-standard residues; d marks the D form. Peptide text beside a SMILES is read from it. * marks the point of attachment. ξ: configuration not given here. Phe(3-CF3) = N[C@@H](Cc1cccc(C(F)(F)F)c1)C(=O)O; Phe(4-CONH2) = NC(=O)c1ccc(C[C@H](N)C(=O)O)cc1; Phe(4-COOH) = N[C@@H](Cc1ccc(C(=O)O)cc1)C(=O)O; Bip = N[C@@H](Cc1ccc(-c2ccccc2)cc1)C(=O)O; Phe(3-Me) = Cc1cccc(C[C@H](N)C(=O)O)c1; ξBip = NC(Cc1ccc(-c2ccccc2)cc1)C(=O)O; NH(CH2)12COOH = O=C(O)CCCCCCCCCCCCN*; Val(3-OH) = CC(C)(O)[C@H](N)C(=O)O; hArg = N=C(N)NCCCC[C@H](N)C(=O)O; Cha = N[C@@H](CC1CCCCC1)C(=O)O; Cit = NC(=O)NCCC[C@H](N)C(=O)O; Thr(3ξ) = CC(O)[C@H](N)C(=O)O; PEG4 = NCCOCCOCCOCCOCCC(=O)O; Carboxymethyl = O=C(O)C*; Nle = CCCC[C@H](N)C(=O)O; Orn = NCCC[C@H](N)C(=O)O; Aun = NCCCCCCCCCCC(=O)O; Dab = NCC[C@H](N)C(=O)O; Dap = NC[C@H](N)C(=O)O; ξD = NC(CC(=O)O)C(=O)O; AEEA = NCCOCCOCC(=O)O
# Molecular target: T1, PD-1/PD-L1 interaction (PE-labeled human PD-L1-Ig binding to Jurkat cell line over-expressing human PD-1) (Homo sapiens, UniProt Q15116)
# T1 construct: expressed in transfected cells; host or cells: Jurkat
# T1 sequence (Q15116 25-288): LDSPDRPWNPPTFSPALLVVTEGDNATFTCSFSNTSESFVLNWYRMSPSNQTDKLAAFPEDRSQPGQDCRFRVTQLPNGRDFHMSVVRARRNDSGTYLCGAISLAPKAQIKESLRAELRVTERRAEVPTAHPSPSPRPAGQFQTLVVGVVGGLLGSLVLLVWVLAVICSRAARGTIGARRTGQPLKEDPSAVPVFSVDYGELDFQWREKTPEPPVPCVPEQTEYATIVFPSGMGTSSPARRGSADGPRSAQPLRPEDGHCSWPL
# Assay: Jurkat-PD-1 Cell Binding High-Content Screening Assay (CBA)
# Assay type: cell-based
# Conditions: Jurkat cell line over-expressing human PD-1; PE-labeled PD-L1-Ig 20 nM final; read-out: Jurkat hPD1-PDL1 IC50
# Summary of the method: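 Jurkat cells over-expressing human PD-1 (8×10^3 per well, DMEM/10% FCS) preincubated with compound 2 h at 37° C, then PE-labeled human PD-L1-Ig (20 nM final) added for 1 h. Cells fixed with paraformaldehyde, Hoechst-stained, and bound fluorescence quantified by high-content imaging.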
row,SMILES,pIC50
1,CC(C)C[C@H]1NC(=O)[C@H](CCCN)NC(=O)[C@H](C(C)C)NC(=O)[C@H](Cc2ccc(-c3ccccc3)cc2)NC(=O)[C@H](C(C)C)NC(=O)[C@H](Cc2c[nH]c3ccccc23)NC(=O)[C@H](CC(=O)O)NC(=O)[C@H](Cc2ccc(OCC(=O)O)cc2)NC(=O)[C@H](CCCCNC(=N)N)NC(=O)CSC[C@@H](C(=O)NCC(=O)NCCOCCOCC(=O)N[C@@H](CCCN)C(=O)NCCCCCCCCCCC(=O)O)NC(=O)[C@H](CCCCN)NC(=O)[C@H](C(C)C)NC(=O)[C@H](CC2CCCCC2)NC(=O)[C@H](CC(N)=O)NC1=O [Compound 3204] ({CH2CO}-[hArg]Y(Carboxymethyl)DWV[Bip]V[Orn][dL]N[Cha]VKCG[AEEA][Orn][Aun]-OH; thioether N-14),7.90
2,Cc1cccc(C[C@@H]2NC(=O)[C@H](CC(=O)O)NC(=O)[C@H](Cc3ccc(OCC(=O)O)cc3)NC(=O)[C@H](C(C)O)NC(=O)CSC[C@@H](C(=O)NCCOCCOCC(=O)NCCCCCCCCCCC(=O)O)NC(=O)[C@H](CCCN)NC(=O)[C@H](C(C)C)NC(=O)[C@H](CC3CCCCC3)NC(=O)[C@H](CCN)NC(=O)[C@@H](CC(C)C)NC(=O)[C@H](CCN)NC(=O)[C@H](C(C)C)NC(=O)[C@H](Cc3ccc(-c4ccccc4)cc3)NC(=O)[C@H](C(C)C)NC2=O)c1 (stereo partly drawn) [Compound 3350] ({CH2CO}-[Thr(3ξ)]Y(Carboxymethyl)D[Phe(3-Me)]V[Bip]V[Dab][dL][Dab][Cha]V[Orn]C[AEEA][Aun]-OH; thioether N-14),8.20
3,CC(C)C[C@H]1NC(=O)[C@H](CCCN)NC(=O)[C@H](C(C)C)NC(=O)[C@H](Cc2ccc(-c3ccccc3)cc2)NC(=O)[C@H](C(C)C)NC(=O)[C@H](Cc2c[nH]c3ccccc23)NC(=O)[C@H](CC(=O)O)NC(=O)[C@H](Cc2ccc(OCC(=O)O)cc2)NC(=O)[C@H](CN)NC(=O)CSC[C@@H](C(=O)NCCOCCOCC(=O)N[C@H](CC(N)=O)C(=O)NCCCCCCCCCCC(=O)O)NC(=O)[C@H]([C@@H](C)O)NC(=O)[C@H](C(C)C)NC(=O)[C@H](CC2CCCCC2)NC(=O)[C@H](Cc2cnc[nH]2)NC1=O [Compound 1136] ({CH2CO}-[Dap]Y(Carboxymethyl)DWV[Bip]V[Orn][dL]H[Cha]VTC[AEEA][dN][Aun]-OH; thioether N-14),7.47
4,Cc1cccc(C[C@@H]2NC(=O)[C@H](CC(=O)O)NC(=O)[C@H](Cc3ccc(OCC(=O)O)cc3)NC(=O)[C@H](CC(N)=O)NC(=O)CSC[C@@H](C(=O)N[C@@H](CCN)C(=O)NCCCCCCCCCCC(=O)O)NC(=O)[C@H]([C@@H](C)O)NC(=O)[C@H](C(C)C)NC(=O)[C@H](CC3CCCCC3)NC(=O)[C@H](CCN)NC(=O)[C@@H](CC(C)C)NC(=O)[C@H](CCCN)NC(=O)[C@H](Cc3ccc(O)cc3)NC(=O)[C@H](Cc3ccc(-c4ccccc4)cc3)NC(=O)[C@H](C(C)C)NC2=O)c1 [Compound 2739] ({CH2CO}-NY(Carboxymethyl)D[Phe(3-Me)]V[Bip]Y[Orn][dL][Dab][Cha]VTC[Dab][Aun]-OH; thioether N-14),7.72
5,Cc1cccc(C[C@@H]2NC(=O)[C@H](CC(=O)O)NC(=O)[C@H](Cc3ccc(OCC(=O)O)cc3)NC(=O)[C@H](CN)NC(=O)CSC[C@@H](C(=O)N[C@@H](CC(=O)O)C(=O)NCC(=O)NCCCCCCCCCCC(=O)O)NC(=O)[C@H]([C@@H](C)O)NC(=O)[C@H](C(C)C)NC(=O)[C@H](CC3CCCCC3)NC(=O)[C@H](Cc3cnc[nH]3)NC(=O)[C@@H](CC(C)C)NC(=O)[C@H](CCCN)NC(=O)[C@H](C(C)C)NC(=O)[C@H](Cc3ccc(-c4ccccc4)cc3)NC(=O)[C@H](C(C)C)NC2=O)c1 [Compound 1093] ({CH2CO}-[Dap]Y(Carboxymethyl)D[Phe(3-Me)]V[Bip]V[Orn][dL]H[Cha]VTCDG[Aun]-OH; thioether N-14),7.93
6,Cc1cccc(C[C@@H]2NC(=O)[C@H](CC(=O)O)NC(=O)[C@H](Cc3ccc(OCC(=O)O)cc3)NC(=O)[C@H](Cc3ccc(OCC(=O)O)cc3)NC(=O)CSC[C@@H](C(=O)N[C@@H](CCCN)C(=O)NCCCCCCCCCCC(=O)O)NC(=O)[C@H](CO)NC(=O)[C@H](C(C)C)NC(=O)[C@H](CC3CCCCC3)NC(=O)[C@H](CCN)NC(=O)[C@@H](CC(C)C)NC(=O)[C@H](CCCN)NC(=O)[C@H](C(C)C)NC(=O)[C@H](Cc3ccc(-c4ccccc4)cc3)NC(=O)[C@H](CC(C)C)NC2=O)c1 [Compound 1059] ({CH2CO}-Y(Carboxymethyl)Y(Carboxymethyl)D[Phe(3-Me)]L[Bip]V[Orn][dL][Dab][Cha]VSC[Orn][Aun]-OH; thioether N-14),7.31
7,CCCC[C@@H]1NC(=O)CSC[C@@H](C(=O)N[C@@H](CCN)C(=O)NCCOCCOCCOCCOCCC(=O)NCCCCCCCCCCCCC(=O)O)NC(=O)[C@H](CO)NC(=O)[C@H](C(C)(C)O)NC(=O)[C@H](CC2CCCCC2)NC(=O)[C@H](CCN)NC(=O)[C@@H](CC(C)C)NC(=O)[C@H](CCCN)NC(=O)[C@H](Cc2ccc(C(=O)O)cc2)NC(=O)[C@H](Cc2ccc(-c3ccccc3)cc2)NC(=O)[C@H](Cc2ccc(C(=O)O)cc2)NC(=O)[C@H](Cc2cccc(C(F)(F)F)c2)NC(=O)[C@H](CC(=O)O)NC(=O)[C@H](Cc2ccc(OCC(=O)O)cc2)NC1=O [Compound 2911] ({CH2CO}-[Nle]Y(Carboxymethyl)D[Phe(3-CF3)][Phe(4-COOH)][Bip][Phe(4-COOH)][Orn][dL][Dab][Cha][Val(3-OH)]SC[Dab][PEG4]-{NH(CH2)12COOH}; thioether N-14),7.46
8,Cc1cccc(C[C@@H]2NC(=O)[C@H](CC(=O)O)NC(=O)[C@H](Cc3ccc(OCC(=O)O)cc3)NC(=O)[C@H](CCN)NC(=O)CSC[C@@H](C(=O)N[C@@H](CCN)C(=O)NCCOCCOCC(=O)NCCCCCCCCCCC(=O)O)NC(=O)[C@H](Cc3cnc[nH]3)NC(=O)[C@H](C(C)O)NC(=O)[C@H](CC3CCCCC3)NC(=O)[C@H](CCN)NC(=O)[C@@H](CC(C)C)NC(=O)[C@H](CCCN)NC(=O)[C@H](Cc3ccc(OCC(=O)O)cc3)NC(=O)[C@H](Cc3ccc(-c4ccccc4)cc3)NC(=O)[C@H](Cc3ccc(OCC(=O)O)cc3)NC2=O)c1 (stereo partly drawn) [Compound 3805] ({CH2CO}-[Dab]Y(Carboxymethyl)D[Phe(3-Me)]Y(Carboxymethyl)[Bip]Y(Carboxymethyl)[Orn][dL][Dab][Cha][Thr(3ξ)]HC[Dab][AEEA][Aun]-OH; thioether N-14),8.92

# Results, then the compound that gave them:
row,pIC50,SMILES
1,8.06,CC(C)C[C@H]1NC(=O)[C@H](CCN)NC(=O)[C@H](C(C)C)NC(=O)[C@H](Cc2ccc(-c3ccccc3)cc2)NC(=O)[C@H](C(C)C)NC(=O)[C@H](Cc2c[nH]c3ccccc23)NC(=O)[C@H](CC(=O)O)NC(=O)[C@H](Cc2ccc(OCC(=O)O)cc2)NC(=O)[C@H](C(C)O)NC(=O)CSC[C@@H](C(=O)N[C@@H](CCN)C(=O)NCCCCCCCCCCC(=O)O)NC(=O)[C@H](CCCNC(N)=O)NC(=O)[C@H](C(C)C)NC(=O)[C@H](CC2CCCCC2)NC(=O)[C@H](CCN)NC1=O (stereo partly drawn) [Compound 3253] ({CH2CO}-[Thr(3ξ)]Y(Carboxymethyl)DWV[Bip]V[Dab][dL][Dab][Cha]V[Cit]C[Dab][Aun]-OH; thioether N-14)
2,7.48,Cc1cccc(C[C@@H]2NC(=O)[C@H](CC(=O)O)NC(=O)[C@H](Cc3ccc(OCC(=O)O)cc3)NC(=O)[C@H](C(C)O)NC(=O)CSC[C@@H](C(=O)N[C@@H](CCCCN)C(=O)NCCCCCCCCCCC(=O)O)NC(=O)[C@H](C(C)O)NC(=O)[C@H](C(C)C)NC(=O)[C@H](CC3CCCCC3)NC(=O)[C@H](CCN)NC(=O)[C@@H](CC(C)C)NC(=O)[C@H](CCCN)NC(=O)[C@H](CCCNC(N)=O)NC(=O)[C@H](Cc3ccc(-c4ccccc4)cc3)NC(=O)[C@H](C(C)C)NC2=O)c1 (stereo partly drawn) [Compound 3467] ({CH2CO}-[Thr(3ξ)]Y(Carboxymethyl)D[Phe(3-Me)]V[Bip][Cit][Orn][dL][Dab][Cha]V[Thr(3ξ)]CK[Aun]-OH; thioether N-14)
3,7.78,Cc1cccc(C[C@@H]2NC(=O)C(CC(=O)O)NC(=O)[C@H](Cc3ccc(OCC(=O)O)cc3)NC(=O)[C@H](CN)NC(=O)CSC[C@@H](C(=O)N[C@@H](CCCNC(=N)N)C(=O)NCCCCCCCCCCC(=O)O)NC(=O)[C@H]([C@@H](C)O)NC(=O)[C@H](C(C)C)NC(=O)[C@H](CC3CCCCC3)NC(=O)[C@H](CCN)NC(=O)[C@@H](CC(C)C)NC(=O)[C@H](CCCN)NC(=O)[C@H](CCCNC(N)=O)NC(=O)C(Cc3ccc(-c4ccccc4)cc3)NC(=O)[C@H](C(C)C)NC2=O)c1 (stereo partly drawn) [Compound 1174] ({CH2CO}-[Dap]Y(Carboxymethyl)[ξD][Phe(3-Me)]V[ξBip][Cit][Orn][dL][Dab][Cha]VTCR[Aun]-OH; thioether N-14)
4,7.76,Cc1cccc(C[C@@H]2NC(=O)[C@H](CC(=O)O)NC(=O)[C@H](Cc3ccc(OCC(=O)O)cc3)NC(=O)[C@H](CCCNC(=N)N)NC(=O)CSC[C@@H](C(=O)N[C@@H](CCN)C(=O)NCCCCCCCCCCC(=O)O)NC(=O)[C@H](C(C)O)NC(=O)[C@H](C(C)C)NC(=O)[C@H](CC3CCCCC3)NC(=O)[C@H](CCN)NC(=O)[C@@H](CC(C)C)NC(=O)[C@H](CCCN)NC(=O)[C@H](CCCNC(N)=O)NC(=O)[C@H](Cc3ccc(-c4ccccc4)cc3)NC(=O)[C@H](C(C)C)NC2=O)c1 (stereo partly drawn) [Compound 3301] ({CH2CO}-RY(Carboxymethyl)D[Phe(3-Me)]V[Bip][Cit][Orn][dL][Dab][Cha]V[Thr(3ξ)]C[Dab][Aun]-OH; thioether N-14)

# Same assay, conditions: Jurkat hPD1-PDL1 IC50, Jurkat cell line over-expressing human PD-1; PE-labeled PD-L1-Ig 20 nM final
row,SMILES,pIC50
1,Cc1cccc(C[C@@H]2NC(=O)[C@H](CC(=O)O)NC(=O)[C@H](Cc3ccc(OCC(=O)O)cc3)NC(=O)[C@H](Cc3ccc(C(N)=O)cc3)NC(=O)CSC[C@@H](C(=O)N[C@@H](CCN)C(=O)NCCCCCCCCCCC(=O)O)NC(=O)[C@H]([C@@H](C)O)NC(=O)[C@H](C(C)C)NC(=O)[C@H](CC3CCCCC3)NC(=O)[C@H](CCN)NC(=O)[C@@H](CC(C)C)NC(=O)[C@H](CCCN)NC(=O)[C@H](Cc3ccc(OCC(=O)O)cc3)NC(=O)[C@H](Cc3ccc(-c4ccccc4)cc3)NC(=O)[C@H](Cc3ccc(OCC(=O)O)cc3)NC2=O)c1 [Compound 2146] ({CH2CO}-[Phe(4-CONH2)]Y(Carboxymethyl)D[Phe(3-Me)]Y(Carboxymethyl)[Bip]Y(Carboxymethyl)[Orn][dL][Dab][Cha]VTC[Dab][Aun]-OH; thioether N-14),7.88
